In patent US12570603B2, “FABP4/5 inhibitors, methods of use and methods of making” (Novius Therapeutics, LLC, priority 2021, dated 2026):
One block for each molecule: values may come before it.

What was measured:
[1] = tested on: PPARδ; assay: Transactivation assay, PPRE luciferase reporter in COS-7 cells; format: cell-based
Experimental: (§1) COS-7 were cultured in 6-well plates and co-transfected with either a luciferase reporter driven by 3 copies of a PPRE and expression vector for either PPARδ, PPARα or PPARγ together with a vector harboring cDNA for β-galactosidase, serving as a transfection control. To test whether FABP4 or FABP5 mediate activation of their cognate receptors PPARγ and PPARδ, respectively, cells were also co-transfected with a plasmid harboring sequence of either FABP4 or FABP5. 18 h post-transfection, cells were placed in a serum-free medium and treated with agonist/compound. 18 h. later, cells were lysed, luciferase activity was assayed (Promega, WI, USA) and corrected for transfection efficiency by the activity of β-galactosidase.
(§2) COS-7 were cultured in 6-well plates and co-transfected with either a luciferase reporter driven by 3 copies of a PPRE and expression vector for either PPARδ, PPARα or PPARγ together with a vector harboring cDNA for β-galactosidase, serving as a transfection control. 18 h. post-transfection, cells were placed in a serum-free medium and treated with agonist/compound. 18 h. later, cells were lysed, luciferase activity was assayed (Promega, WI, USA) and corrected for transfection efficiency by the activity of β-galactosidase.

[2] = tested on: PPARγ; assay: as above; format: cell-based; conditions: for activation of transcription by PPARγ: tested against rosiglitazone, FIG. 4; for activation of PPARγ: 5 μM, COS7 cells, FIG. 36C
Experimental: as §1, §2

[3] = biological target: T1, PPARα (Homo sapiens, UniProt Q07869); assay: as above; format: cell-based
T1 construct: expressed in transfected cells; host or cells: COS-7
Experimental: as §1, §2

[4] = tested on: MB-231 shC and shF5 cells; assay: Proliferation assay, MB-231 lines expressing control shRNA (shC) or FABP5 shRNA (shF5); format: cell-based; conditions: MB-231 shC vs shF5, different concentrations
Experimental: (§3) 2000 cells were plated in each well of 96-well plate. The next day cells were treated with compounds and incubated in Incucyte for 4 days. Images taken every 4 hours for the duration of the time were analyzed to calculate percentage of confluency in response to the treatments. Growth inhibition was calculated as 1−(percentage of viable cells out of untreated cells).

[5] = tested on: PPARδ targets PDPK1 and CD47 in TNBC cells MB-231; assay: Real-time PCR of PPARδ targets; format: cell-based; conditions: MB-231, 1 μM, 6 hours
Experimental: (§4) Cells were treated with a compound for 6 h. then lysed and RNA was extracted using Trizol, according to the manufacturer's instructions. cDNA was generated using GeneAmp RNA PCR (Applied Biosystems). qPCR was carried out using TaqMan chemistry and Assays-on-Demand probes (Applied Biosystems). 18s (4352930) rRNA was used for normalization. Relative expression was calculated as 2^−ΔΔCT.

[6] = tested on: PPARδ targets PDPK1 and CD47 in TNBC cells MB-157; assay: Real-time PCR of PPARδ targets; format: cell-based, human; conditions: MB-157, 1 μM, 6 hours
Experimental: as §4

[7] = tested on: TNBC lines and MCF7; assay: Proliferation assay in multiple TNBC lines and MCF7, MB-231 shF5 as control; format: cell-based
Experimental: as §3

[8] = tested on: FABP4 together with PPARγ; assay: Transcriptional activation assay in cells overexpressing FABP4, with PPARγ activator rosiglitazone; format: cell-based; conditions: FIG. 7
Experimental: as §1

[9] = tested on: FABP5 together with PPARδ; assay: Transcriptional activation assay in cells overexpressing FABP5, with PPARδ activator GW0742; format: cell-based; conditions: together with GW0742, FIG. 8
Experimental: as §1

[10] = biological target: T2, FABP5 (Homo sapiens, UniProt Q01469); assay: FABP binding assay by fluorescence titration (ANS competition); conditions: fluorescence competition with ANS; read-out: FABP5 binding
T2 construct: made in house
Experimental: (§5) This example illustrates a binding assay study used to determine the binding affinity of the various inhibitor compounds disclosed herein with the various FABPs: FABP3, FABP4, FABP5 and FABP7.
(§6) Binding assays for FABP3, FABP4, FABP5 and FABP7 were carried out by fluorescence titrations. FABPs were bacterially expressed and purified and the equilibrium dissociation constants (Kd) that characterize their interactions with different compounds were measured by fluorescence competition assays. The method entails two steps as described in e.g., Lin, Q. et al., “Ligand selectivity of the peroxisome proliferator-activated receptor alpha,” Biochemistry 38, 185-190, doi:10.1021/bi9816094 bi9816094 [pii](1999). In the first step, Kd for the association of the protein with the fluorescent fatty acid probe ANS was measured. Protein ([…]) was titrated with ANS from a concentrated solution in DMSO. Ligand binding was monitored by following the increase in the fluorescence of the ligand upon binding to the protein, and Kd for the association of ANS with the each FABP was computed from titration curves as described in e.g., Norris, A. W. & Li, E., “Fluorometric titration of the CRABPs,” Methods Mol Biol 89, 123-139 (1998)). Kds for binding of non-fluorescent ligands were then measured by monitoring their ability to displace ANS in the binding pocket of the protein. Each FABP was pre-complexed with ANS at 1:1 molar ratio and titrated with the different compounds whose binding was reflected by a decrease in probe fluorescence. Kds were extracted from the EC50 of the competition curve and the measured Kd for ANS.
(§7) Binding assays for FABP3, FABP4, FABP5 and FABP7 were carried out by fluorescence titrations as described in Example 16.

[11] = biological target: T3, FABP4 (Homo sapiens, UniProt P15090); assay: as above; conditions: fluorescence competition with ANS; read-out: FABP4 binding
T3 construct: made in house
Experimental: as §5, §6, §7

[12] = tested on: NPG human neuroblastoma cells; assay: Neuroblastoma proliferation assay with or without all-trans retinoic acid; format: cell-based; conditions: for proliferation of neuroblastoma cells in combination with atRA: combined with atRA; for proliferation of neuroblastoma cells: compound alone, 4 days
Experimental: (§8) COS-7, MDA-MB-231, HepG2, LX-2, 3T3-L1, NPG, and MCF7 were cultured in Dulbecco's modified Eagle's medium (DMEM) supplemented with 10% fetal bovine serum (Invitrogen Life Sciences, Carlsbad, CA). MDA-MB-157 and MB-549 cells were cultured in L-Glutamine containing RPMI medium supplemented with 10% fetal calf serum (Invitrogen Life Sciences, Carlsbad, CA). For proliferation assays, 2000 cells were plated in each well of 96-well plate. The next day cells were treated with compounds and incubated in Incucyte for 4 days. Images taken every 4 hours for the duration of the time were analyzed to calculate percentage of confluency in response to the treatments.
Activation of PPARβ by atRA shifts the signaling of this vitamin from its cognate receptor RAR that is known to have anti-carcinogenic activities in multiple cancers to the pro-carcinogenic PPARβ. […] Accordingly, NB, human NPG cells were used to test the effect of FABP5 inhibitors on cells' proliferation in combination with atRA. Cells were treated with either B104 or B108 in the presence or absence of atRA.

[13] = tested on: MB-231 cells; assay: Proliferation assay (Incucyte confluency, 4 days); format: cell-based; conditions: MB-231, serial dilution
Experimental: as §8
The TNBC line MB-231 was used to calculate the efficacy of compounds B104, B106, B110, B116, and B118 in inhibiting proliferation of the cancer cells. Cells were treated with serial dilution of the compounds or the known FABP5/7 inhibitor SBF-I26 and proliferation was measured in Incucyte by calculating percentage of confluency every 4 hours over 4 days. […] The EC50 for each compound was calculated by fitting the percentage of inhibition vs. the logarithmic transformation of the used concentrations (FIG. 37B and FIG. 37D). Additionally, the effect of B116 and B118 was also tested on proliferation of the human TNBC lines MDA-MB-157 (FIG. 37E) and MB-549 (FIG. 37F).

T3 sequence (P15090 whole entry, species assumed): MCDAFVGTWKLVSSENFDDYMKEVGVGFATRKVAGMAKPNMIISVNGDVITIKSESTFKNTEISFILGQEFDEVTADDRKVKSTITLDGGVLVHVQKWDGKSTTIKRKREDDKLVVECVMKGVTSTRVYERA
T2 sequence (Q01469 whole entry, species assumed): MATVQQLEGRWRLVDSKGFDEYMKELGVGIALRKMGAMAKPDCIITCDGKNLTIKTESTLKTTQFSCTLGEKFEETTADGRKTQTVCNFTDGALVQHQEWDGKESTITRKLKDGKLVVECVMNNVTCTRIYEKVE
T1 sequence (Q07869 whole entry, species assumed): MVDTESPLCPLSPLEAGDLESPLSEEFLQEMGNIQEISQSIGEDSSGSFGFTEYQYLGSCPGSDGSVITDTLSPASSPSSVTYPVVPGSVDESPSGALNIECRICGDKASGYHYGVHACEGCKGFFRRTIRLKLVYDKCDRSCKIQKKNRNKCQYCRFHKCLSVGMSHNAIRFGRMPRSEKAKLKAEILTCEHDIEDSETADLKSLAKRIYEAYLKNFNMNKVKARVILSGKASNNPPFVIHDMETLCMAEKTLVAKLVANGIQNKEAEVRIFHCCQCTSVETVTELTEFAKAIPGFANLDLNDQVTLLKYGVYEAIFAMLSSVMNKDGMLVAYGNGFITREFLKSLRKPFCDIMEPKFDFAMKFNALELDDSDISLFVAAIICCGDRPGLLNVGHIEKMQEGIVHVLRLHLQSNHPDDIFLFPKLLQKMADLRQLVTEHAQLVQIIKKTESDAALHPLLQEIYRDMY

- activation of PPARα ([3]; compared to WY-14643, FIG. 6): activate PPARα
SMILES: O=C(O)CSCC(=O)Nc1cc(OCc2ccccc2)c(Cl)cc1Cl [Compound B7]
- activation of transcription by PPARδ ([1]; compared to GW0742, FIG. 5): did not active transcription
- activation of transcription by PPARγ [2]: did not activate transcription
- TNBC cell growth, shC versus shF5 [4]: suppressed TNBC cell growth only in the cells highly expressing FABP5
- levels of endogenous PPARδ targets PDPK1 and CD47 [5]: significantly lower
- levels of endogenous PPARδ targets PDPK1 and CD47 [6]: significantly lower
- growth inhibition of TNBC lines by FABP5 level [7]: inhibited growth of only TNBC lines expressing high FABP5 levels
- inhibition of PPARγ activity in cells overexpressing FABP4 [8]: inhibit activity of the nuclear receptors only in cells that express the binding proteins
- inhibition of PPARδ activity in cells overexpressing FABP5 [9]: inhibit activity of the nuclear receptors only in cells that express the binding proteins

- activation of PPARα ([3]; 5 μM, COS7 cells, FIG. 36B): activate both PPARα and PPARγ
- Kd [10]: 7 nM
- Kd [11]: 97 nM
SMILES: CC(C)Oc1cc(NC(=O)CSC(C)(C)C(=O)O)c(Cl)cc1Cl [Compound B104, 2-((2-((2,4-dichloro-5-isopropoxyphenyl)amino)-2-oxoethyl)thio)-2-methylpropanoic acid]
- activation of transcription by PPARδ ([1]; 5 μM, COS7 cells, FIG. 36A): do not Activate Transcription
- activation of PPARγ [2]: activate both PPARα and PPARγ
- proliferation of neuroblastoma cells in combination with atRA [12]: enhanced
- proliferation of neuroblastoma cells [12]: significantly inhibited proliferation
- suppression of growth of TNBC cells compared with SBF-I26 [13]: Suppress Growth of TNBC Cells More Effectively than the Commercially Available Inhibitor SBF-I26

- Kd [10]: 15 nM
- Kd [11]: 242 nM
SMILES: CC(C)Oc1cc(NC(=O)COCC(=O)O)c(Cl)cc1Cl [Compound B110, 2-(2-((2,4-dichloro-5-isopropoxyphenyl)amino)-2-oxoethoxy)acetic acid]
- activation of transcription by PPARδ ([1]; 5 μM, COS7 cells, FIG. 36A): do not Activate Transcription
- suppression of growth of TNBC cells compared with SBF-I26 [13]: Suppress Growth of TNBC Cells More Effectively than the Commercially Available Inhibitor SBF-I26

- Kd [10]: 15 nM
- Kd [11]: 116 nM
SMILES: CC(C)Oc1cc(NC(=O)C2CCC(C(=O)O)O2)c(Cl)cc1Cl (centres unmarked) [Compound B112, 5-((2,4-dichloro-5-isopropoxyphenyl)carbamoyl)tetrahydrofuran-2-carboxylic acid]

The next lines start with the molecule.

SMILES: C#CCOc1cc(NC(=O)CSCC(=O)O)c(Cl)cc1Cl [Compound B9]
- activation of transcription by PPARδ ([1]; compared to GW0742, FIG. 5): did not active transcription
- activation of transcription by PPARγ [2]: did not activate transcription
- TNBC cell growth, shC versus shF5 [4]: suppressed TNBC cell growth only in the cells highly expressing FABP5
- levels of endogenous PPARδ targets PDPK1 and CD47 [5]: significantly lower
- levels of endogenous PPARδ targets PDPK1 and CD47 [6]: significantly lower
- growth inhibition of TNBC lines by FABP5 level [7]: inhibited growth of only TNBC lines expressing high FABP5 levels
- inhibition of PPARγ activity in cells overexpressing FABP4 [8]: inhibit activity of the nuclear receptors only in cells that express the binding proteins
- inhibition of PPARδ activity in cells overexpressing FABP5 [9]: inhibit activity of the nuclear receptors only in cells that express the binding proteins

SMILES: CC(C)Oc1cc(NC(=O)CSC(C)C(=O)O)c(Cl)cc1Cl (centres unmarked) [Compound B102, 2-((2-((2,4-dichloro-5-isopropoxyphenyl)amino)-2-oxoethyl)thio)propanoic acid]
- Kd [10]: 6 nM
- Kd [11]: 116 nM

SMILES: CC(C)Oc1cc(NC(=O)C(C)SC(C)C(=O)O)c(Cl)cc1Cl (centres unmarked) [Compound B106, 2-((1-((2,4-dichloro-5-isopropoxyphenyl)amino)-1-oxopropan-2-yl)thio)propanoic acid]
- Kd [10]: 15 nM
- Kd [11]: 286 nM

SMILES: CC(C)Oc1cc(NC(=O)C2CCC(C(=O)O)S2)c(Cl)cc1Cl (centres unmarked) [Compound B108, 5-((2,4-dichloro-5-isopropoxyphenyl)-carbamoyl)tetrahydrothiophene-2-carboxylic acid]
- activation of transcription by PPARδ ([1]; 5 μM, COS7 cells, FIG. 36A): do not Activate Transcription
- activation of PPARγ [2]: activated PPARγ
- Kd [10]: 2 nM
- Kd [11]: 48 nM
- proliferation of neuroblastoma cells in combination with atRA [12]: enhanced
- proliferation of neuroblastoma cells [12]: significantly inhibited proliferation
- suppression of growth of TNBC cells compared with SBF-I26 [13]: Suppress Growth of TNBC Cells More Effectively than the Commercially Available Inhibitor SBF-I26

SMILES: CC(C)Oc1cc(NC(=O)CCCC(=O)O)c(Cl)cc1Cl [Compound B114, 5-((2,4-dichloro-5-isopropoxyphenyl)amino)-5-oxopentanoic acid]
- Kd [10]: 6 nM
- Kd [11]: 218 nM
